The record followed here is patent publication US9079834B2, “HIV protease inhibitors” (Merck Canada Inc., priority 2010, dated 2015).

For one assay, the target named is wild-type HIV-1 protease (Human immunodeficiency virus type 1 group M subtype B (isolate HXB2) (HIV-1), UniProt P04585). The assay can be described thus: Assay for inhibition of microbial expressed HIV protease. The following applies: wild-type HIV-1 protease enzyme. The assay is classed as biochemical. As for the experimental part: The inhibition of WT HIV-1 protease was studied using the reaction of the protease (expressed in Escherichia coli) with a peptide substrate as described in WO 2009/042094. The test compound was first preincubated with the enzyme in assay buffer (50 mM sodium acetate, pH 5.5, 100 mM NaCl, and 0.1% BSA) for 30 minutes at room temperature. Substrate was then added to 400 micromolar in a total volume of 80 microliters containing 10 picomolar HIV-1 protease and the reaction was incubated for 1 hour at 30° C. The reaction was quenched with the addition of 120 microliters of 10% phosphoric acid. The product formation was determined after separation of product and substrate on a ZORBAX® Eclipse XDB-C18 (Agilent Technologies, Palo Alto, Calif.) column connected to an Agilent 1100 high performance liquid chromatography system with fluorescence detection (excitation 270 nanometer and emission 330 nanometer). Alternatively, the inhibitor was preincubated with enzyme and substrate as described above, but in a total volume of 20 microliters containing 20 picomolar HIV-1 protease and the reaction was incubated for 1 hour at 30° C. The reaction was quenched with the addition of 30 microliters of 1 micromolar indinavir (indinavir was also used as an internal standard), and the product formation was determined after separation of product and substrate on a ZORBAX® Eclipse XDB-C18 column connected to an API 4000 mass spectrometer (Applied Biosystems, Carlsbad, Calif.) with multiple reaction monitoring (transitions were 644.5/428.9 and 615.4/422.2 (M1/M3) for product and indinavir respectively). The extent of inhibition of the reaction was determined from the peak area of the products. HPLC of the products, independently synthesized, provided quantitation standards and confirmation of the product composition.

The test system of assay [1] is HIV-1 replication in T-lymphoid cells. Nature of the assay: Assay for inhibition of HIV replication (spread assay). The following applies: 10% FBS. The assay is classed as cell-based. As for the experimental part:
Assays for the inhibition of acute HIV infection of T-lymphoid cells were conducted in accordance with Vacca, J. P. et al., Proc. Natl. Acad. Sci. USA 91: 4096-4100 (1994).

The mark [2] stands for this setting: Human immunodeficiency virus 1, T-lymphoid.

`COC(=O)N[C@H](C(=O)NCC(F)CC[C@@H](CO)N(CCC(C)C)S(=O)(=O)c1ccc(N)cc1)C(c1ccccc1)c1ccccc1` (single isomer, unassigned) [Example 1-1, N-[(2R or S,5S)-5-{[(4-aminophenyl)sulfonyl](3-methylbutyl)amino}-2-fluoro-6-hydroxyhexyl]-Nα-(methoxycarbonyl)-β-phenyl-L-phenylalaninamide]: the half-maximal inhibitory concentration (IC50) (commonly the concentration needed to halve the response being measured) on wild-type HIV-1 protease turned out to be 0.24 nM. For the same molecule, the IC95 (as a rule, the point of the concentration-response curve where the effect stands at 95%) in assay [1] was determined as 42.8 nM.

Regarding `COC(=O)N[C@H](C(=O)NCC(F)CC[C@@H](CO)N(CCC(C)C)S(=O)(=O)c1ccc(N)cc1)C(c1ccccc1)c1ccccc1` (single isomer, unassigned) [Example 1-2, N-[(2R or S,5S)-5-{[(4-aminophenyl)sulfonyl](3-methylbutyl)amino}-2-fluoro-6-hydroxyhexyl]-Nα-(methoxycarbonyl)-β-phenyl-L-phenylalaninamide], the concentration for half-maximal inhibition (IC50) against wild-type HIV-1 protease came to 0.01 nM. In assay [1], this molecule returned a 95% effect concentration (IC95) of 19.5 nM.

As for `COC(=O)N[C@H](C(=O)NCC(F)CC[C@@H](CO)N(CCC(C)C)S(=O)(=O)c1ccc(N)cc1)C(c1ccccc1)c1ccccc1` (stereo partly drawn) [Example 1, N-[(5S)-5-{[(4-aminophenyl)sulfonyl](3-methylbutyl)amino}-2-fluoro-6-hydroxyhexyl]-Nα-(methoxycarbonyl)-β-phenyl-L-phenylalaninamide], at wild-type HIV-1 protease, the IC50 was determined as 0.03 nM. The concentration for an effect of 95% (IC95) in assay [1] (setting [2]) amounted to 10.7 nM.

At wild-type HIV-1 protease, `CCCCCN([C@H](CO)CCC(F)(F)CNC(=O)[C@@H](NC(=O)OC)C(c1ccccc1)c1ccccc1)S(=O)(=O)c1ccc(CO)cc1` [Example 2] gave a concentration for half-maximal inhibition (IC50) of 0.019 nM. In assay [1] (setting [2]), this molecule showed a concentration for an effect of 95% (IC95) of 16.3 nM.

In turn, `COC(=O)N[C@H](C(=O)NCC(F)(F)CC[C@@H](CO)N(CC1CC(F)(F)C1)S(=O)(=O)c1ccc2ncsc2c1)C(c1ccccc1)c1ccccc1` [Example 4, N-[(5S)-5-{(1,3-benzothiazol-6-ylsulfonyl)[(3,3-difluorocyclobutyl)methyl]amino}-2,2-difluoro-6-hydroxyhexyl]-Nα-(methoxycarbonyl)-β-phenyl-L-phenylalaninamide] showed an IC50 against wild-type HIV-1 protease of 0.59 nM. Moreover, in assay [1] (setting [2]), the 95% effect concentration (IC95) was 181 nM.

`COC(=O)N[C@H](C(=O)NCC(F)(F)CC[C@@H](CO)N(Cc1cn[nH]c1)S(=O)(=O)c1ccc2ncsc2c1)C(c1ccccc1)c1ccccc1` [Example 5, N-{(5S)-5-[(1,3-benzothiazol-6-ylsulfonyl)(1H-pyrazol-4-ylmethyl)amino]-2,2-difluoro-6-hydroxyhexyl}-Nα-(methoxycarbonyl)-β-phenyl-L-phenylalaninamide] had an IC50 against wild-type HIV-1 protease of 0.39 nM. The molecule further had an IC95 in assay [1] (setting [2]) of 907 nM.

`COC(=O)N[C@H](C(=O)NCC(F)(F)CC[C@@H](CO)N(C1CCC(F)(F)CC1)S(=O)(=O)c1ccc2ncsc2c1)C(c1ccccc1)c1ccccc1` [Example 6, N-{(5S)-5-[(1,3-benzothiazol-6-ylsulfonyl)(4,4-difluorocyclohexyl)amino]-2,2-difluoro-6-hydroxyhexyl)-Nα-(methoxycarbonyl)-β-phenyl-L-phenylalaninamide] came in with a half-maximal inhibitory concentration (IC50) at wild-type HIV-1 protease of 2.73 nM. This molecule had a 95% effect concentration (IC95) in assay [1] (setting [2]) of 356 nM.

As to `COC(=O)N[C@H](C(=O)NCC(F)(F)CC[C@@H](C(N)=O)N(CC1CC(F)(F)C1)S(=O)(=O)c1ccc2ncsc2c1)C(c1ccccc1)c1ccccc1` [Example 7, N^6-[N-(methoxycarbonyl)-β-phenyl-L-phenylalanyl]-N^2-(1,3-benzothiazol-6-ylsulfonyl)-N^2-[(3,3-difluorocyclobutyl)methyl]-5,5-difluoro-L-lysinamide], the IC50 against wild-type HIV-1 protease turned out to be 0.43 nM. The IC95 in assay [1] (setting [2]) is 200 nM.

With `COC(=O)N[C@H](C(=O)NCCC(F)(F)C[C@@H](CO)N(C(C)C)S(=O)(=O)c1ccc(N)cc1)C(c1ccccc1)c1ccccc1` [Example 8, N-[(5S)-5-{[(4-aminophenyl)sulfonyl](propan-2-yl)amino}-3,3-difluoro-6-hydroxyhexyl]-Nα-(methoxycarbonyl)-β-phenyl-L-phenylalaninamide], at wild-type HIV-1 protease, half-maximal inhibition (IC50) was put at 6.07 nM. Further, it took 299 nM to reach the 95% level in assay [1] (setting [2]) (IC95).

As to `COC(=O)N[C@H](C(=O)NCCC(F)(F)C[C@@H](CO)N(CC1CC(F)(F)C1)S(=O)(=O)c1ccc2ncsc2c1)C(c1ccccc1)c1ccccc1` [Example 9, N-[(5S)-5-{(1,3-benzothiazol-6-ylsulfonyl)[(3,3-difluorocyclobutyl)methyl]amino}-3,3-difluoro-6-hydroxyhexyl]-Nα-(methoxycarbonyl)-β-phenyl-L-phenylalaninamide], the concentration for half-maximal inhibition (IC50) at wild-type HIV-1 protease was found to be 5.62 nM. Also, the 95% effect level in assay [1] (setting [2]) (IC95) was put at 105 nM.

As for `COC(=O)N[C@H](C(=O)NCCC(F)C[C@@H](CO)N(C(C)C)S(=O)(=O)c1ccc(N)cc1)C(c1ccccc1)c1ccccc1` (stereo partly drawn) [Example 10, N-[(5S)-5-{[(4-aminophenyl)sulfonyl](propan-2-yl)amino}-3-fluoro-6-hydroxyhexyl]-Nα-(methoxycarbonyl)-β-phenyl-L-phenylalaninamide], on wild-type HIV-1 protease, the IC50 worked out at 3.9 nM. The molecule also gave a 95% effect concentration (IC95) in assay [1] (setting [2]) of 246 nM.
